The numbers were not newly measured in US20070148136A1, “Methods of using ammonia oxidizing bacteria” (priority 2003, published 2007), which cites them from elsewhere.

Holding throughout (settings): cited from earlier work
For data set [1], the system named is N. europaea.
Data set [2] relates to N. mobilis.
Data set [3] deals with N, multiformis.
For data set [4], the system named is Nitrosospira sp. strain AV.

Molecules are shown by their SMILES.

For the molecule `CCCCCCCCCCC(C)c1ccc(S(=O)(=O)O)cc1` (stereo not shown) [4-(2-dodecyl)benzenesulfonic acid], the “50% inhibitory concentration (IC50)” value in data set [1] is 5 µg/mL (ppm); in data set [2], 3 µg/mL (ppm); in data set [3] it was 1 µg/mL (ppm); in data set [4], 1 µg/mL (ppm).
